Measurements: US20230390275A1, “APPLICATION OF ESTER GROUP-[…] PR[…] AND METABOLITE THEREOF IN PREPARATION OF DRUG FOR TREATING HEART FAILURE” (CHANGCHUN GENESCIENCE PHARMACEUTICAL CO., LTD., priority 2020, published 2023)

What was measured:
Assay type in all cases: in vivo, Sprague Dawley rats
heart failure rats [1] = assay: Hemodynamics (heart rate, arterial blood pressure, left ventricular pressure) in myocardial infarction heart failure rats; parameters: Dp/dt max / Dp/dt min: unit not given here; conditions: 3 mpk p.o. qd for 4 weeks; one day after last dose; Mean ± SEM, N = 7
Method: (§1) • 1. Vehicle (0.5% CMC Na): formulation: 5 g of CMC Na was weighed out, and the volume was made up to 1000 mL with ddwater; the vehicle was obtained by stirring with a stirrer until the CMC Na was dissolved. • 2. EG017: formulation: a proper amount of the sample was weighed out, and a formula amount of the 0.5% CMC Na was added to prepare 1 mg/kg, 3 mg/kg and 10 mg/kg compound; the formulations were obtained by stirring with a stirrer until the sample was dissolved. Administration regimen: one week after animal modeling, sham/myocardial infarction rats were grouped and administered orally once daily for 28 consecutive days in a volume of 10 mL/kg.
(§2) After adaptive feeding, on the day of the experiment, the animals were anesthetized by intraperitoneal injection of pentobarbital sodium injection (60 mpk), atropine (0.5 mpk) was injected intraperitoneally to eliminate phlegm, and then the trachea was connected with a breathing machine to assist breathing; the chest was cut open from the place between the third rib and the fourth rib and then expanded with a chest expander; the pericardium was torn open, the left anterior descending coronary artery was ligated with 5-0 silk thread, the ribs and skin were sutured, and then the animals were placed on a heat preservation blanket for recovery after operation. The animals in the Sham group were also subjected to the same operation, except that the ligation with silk thread was not performed. After the operation was finished, all the animals are subjected to intramuscular injection of meloxicam (1 mpk) and gentamicin hydrochloride injection (8 mpk) for analgesia and anti-infection. One day before administration, the rats were subjected to cardiac ultrasonography after anesthesia by isoflurane inhalation (1.5%-5% v/v in oxygen), and the ligation was successful if there was no significant contraction of the anterior wall of the left ventricle, the left ventricular cavity was enlarged, and there was a 30% decrease in left ventricular ejection fraction compared to the normal control group. Successfully modeled rats were selected for subsequent experiments (note: ensure that there were 7 animals in each group after modeling, and 7 animals in the sham group). The rats in each group were subjected to intragastric administration of therapeutic agent once daily for four consecutive weeks. During the experiment, the living state of the animals was observed, and the abnormal conditions were recorded; endpoint index detection and sample collection were performed one day after the last dose.
(§3) One week after the modeling of animals, the isoflurane was used for anesthetizing the rats, the Vevo small animal ultrasonic imaging system was used for checking the function of the left ventricle of the model rats, and successful modeling was determined if the LVFE % was reduced by 30%.
(§4) Except for the Sham group, the animals were divided into 9 groups according to LVEF % and body weight, 7 rats in each group. […]

heart failure rats [2] = assay: Body weight and organ weight index (heart weight index, brain/heart weight ratio) in myocardial infarction heart failure rats; parameters: Brain weight/heart weight: unit not given here; conditions: 3 mpk p.o. qd for 4 weeks; endpoint; Mean ± SEM, N = 7
Method: as §1, with “mL/kg. […]” for “mL/kg.”
One week after the modeling of animals, the isoflurane was used for anesthetizing the rats, the Vevo small animal ultrasonic imaging system was used for checking the function of the left ventricle of the model rats, and successful modeling was determined if the LVFE % was reduced by 30%. […]

heart failure rats [3] = assay: Echocardiography of left ventricular function in myocardial infarction heart failure rats; conditions: 3 mpk p.o. qd for 4 weeks; one day after last dose; Mean ± SEM, N = 7
Method: as §1, §2, §3, §4

C[C@@](COc1ccc(C#N)cc1)(OC(=O)c1cccnc1)C(=O)Nc1ccc(C#N)c(C(F)(F)F)c1 [EG017, (S)-1-((4-cyano-3-(trifluoromethyl)phenyl)amino)-3-(4-cyanophenoxy)-2-methyl-1-oxopropan-2-yl nicotinate]
DBP (heart failure rats [1]): 76.1 ± 3.02 mmHg | Dp/dt max (heart failure rats [1]): 6630 ± 432 | Dp/dt min (heart failure rats [1]): −6603 ± 707 | HR (heart failure rats [1]): 352 ± 23.3 BPM | LVSP (heart failure rats [1]): 98.5 ± 3.89& mmHg | MBP (heart failure rats [1]): 88.3 ± 3.39 mmHg | SBP (heart failure rats [1]): 98.7 ± 3.62 mmHg | Brain weight/heart weight (heart failure rats [2]): 78.3 ± 4.31 | Heart weight index (heart failure rats [2]): 0.376 ± 0.025 g/100 g body weight | CO (heart failure rats [3]): 85.6 ± 9.55 mL/min | EDV (heart failure rats [3]): 477 ± 48.2 µL | ESV (heart failure rats [3]): 238 ± 52.0 µL | FS (heart failure rats [3]): 29.0 ± 3.51 % | LV mass (heart failure rats [3]): 1497 ± 145^ mg | LVEF (heart failure rats [3]): 52.7 ± 5.61 % | LVPWTd (heart failure rats [3]): 2.17 ± 0.17 mm | LVPWTs (heart failure rats [3]): 2.66 ± 0.22 mm | SV (heart failure rats [3]): 238 ± 21.1 µL
